Measured values from patent US10160724B2, “Tetrahydropyridine derivatives and their use as antibacterial agents” (Dong-A St Co., Ltd., priority 2016, dated 2018).
In brackets after ≈: the same amount, converted by molar mass.

Key:
Assay in all cases: In vitro antibiotic activity, agar dilution method (Mueller-Hinton agar, NCCLS)
Assay type in all cases: cell-based
P. aeruginosa PAO1 = conditions: Pseudomonas aeruginosa, PAO1; agar dilution, Mueller-Hinton agar; read-out: MIC for P. aeruginosa PAO1
Method: (§1) To measure the antibiotic activity of the compounds prepared by Examples, antibiotic activity test in vitro was performed by agar dilution method using Mueller-Hinton agar according to the NCCLS (National Committee for Clinical Laboratory Standards. 2000. Methods for dilution antimicrobial susceptibility tests for bacteria that grow aerobiocally. Approved standard, NCCLS document M7-M5, 5th ed, vol 20, no 2. National Committee for Clinical Laboratory Standards, Wayne, Pa.). The test strain was Escherichia coli (ATCC 25922), Klebsiella pneumonia (ATCC 29665) and Pseudomonas aeriginosa (PAO1).

K. pneumoniae ATCC 29665 = conditions: Klebsiella pneumoniae, ATCC29665; agar dilution, Mueller-Hinton agar; read-out: MIC for K. pneumoniae ATCC 29665
Method: as §1

E. coli ATCC 25922 = conditions: Escherichia coli, ATCC25922; agar dilution, Mueller-Hinton agar; read-out: MIC for E. coli ATCC 25922
Method: as §1

| SMILES | MIC (P. aeruginosa PAO1) [µg/mL] | MIC (K. pneumoniae ATCC 29665) [µg/mL] | MIC (E. coli ATCC 25922) [µg/mL] |
| --- | --- | --- | --- |
| CC(CCN1CC=C(c2ccc(C#CCCCCO)cc2)CC1)(C(=O)NO)S(C)(=O)=O (stereo not drawn) [Example 29, N-hydroxy-4-(4-(4-(6-hydroxyhex-1-yn-1-yl)phenyl)-3,6-dihydropyridin-1(2H)-yl)-2-methyl-2-(methylsulfonyl)butanamide] | 1 to 8 (≈ 2.23 to 17.8 µM) | 1 to 8 (≈ 2.23 to 17.8 µM) | < 1 |
| CC(CCN1CC=C(c2ccc(C#CCCCCl)cc2)CC1)(C(=O)NO)S(C)(=O)=O (stereo not drawn) [Example 14, 4-(4-(4-(5-chloropent-1-yn-1-yl)phenyl)-3,6-dihydropyridin-1(2H)-yl)-N-hydroxy-2-methyl-2-(methylsulfonyl)butanamide] | 1 to 8 (≈ 2.21 to 17.7 µM) | 1 to 8 (≈ 2.21 to 17.7 µM) | < 1 |
| CC(CCN1CC=C(c2ccc(-c3ccc(S(C)(=O)=O)cc3)cc2)CC1)(C(=O)NO)S(C)(=O)=O (stereo not drawn) [Example 64, N-hydroxy-2-methyl-2-(methylsulfonyl)-4-(4-(4′-(methylsulfonyl)-[1,1′-biphenyl]-4-yl)-3,6-dihydropyridin-1(2H)-yl)butanamide] | 1 to 8 (≈ 1.97 to 15.8 µM) | 1 to 8 (≈ 1.97 to 15.8 µM) | < 1 |
| CC(CCN1CC=C(c2ccc(C#CCCCN)cc2)CC1)(C(=O)NO)S(C)(=O)=O (stereo not drawn) [Example 21, 4-(4-(4-(5-aminopent-1-yn-1-yl)phenyl)-3,6-dihydropyridin-1(2H)-yl)-N-hydroxy-2-methyl-2-(methylsulfonyl)butanamide] | > 16 | > 16 | 8 to 16 (≈ 18.5 to 36.9 µM) |
| CC(CCN1CC=C(c2ccc(C#CC3CCCC3)cc2)CC1)(C(=O)NO)S(C)(=O)=O (stereo not drawn) [Example 9, 4-(4-(4-(cyclopentylethynyl)phenyl)-3,6-dihydropyridin-1(2H)-yl)-N-hydroxy-2-methyl-2-(methylsulfonyl)butanamide] | > 16 | 1 to 8 (≈ 2.25 to 18 µM) | < 1 |
| CC(CCN1CC=C(c2ccc(C#CCC3CCCCC3)cc2)CC1)(C(=O)NO)S(C)(=O)=O (stereo not drawn) [Example 12, 4-(4-(4-(3-cyclohexylprop-1-yn-1-yl)phenyl)-3,6-dihydropyridin-1(2H)-yl)-N-hydroxy-2-methyl-2-(methylsulfonyl)butanamide] | > 16 | 8 to 16 (≈ 16.9 to 33.9 µM) | 8 to 16 (≈ 16.9 to 33.9 µM) |
| CC(CCN1CC=C(C#CC#CCCCO)CC1)(C(=O)NO)S(C)(=O)=O (stereo not drawn) [Example 54, N-hydroxy-4-(4-(7-hydroxyhepta-1,3-diyn-1-yl)-3,6-dihydropyridin-1(2H)-yl)-2-methyl-2-(methylsulfonyl)butanamide] | > 16 | > 16 | 8 to 16 (≈ 20.9 to 41.8 µM) |
| CC(CCN1CC=C(c2ccc(C#CC#CCCCO)c(F)c2)CC1)(C(=O)NO)S(C)(=O)=O (stereo not drawn) [Example 42, 4-(4-(3-fluoro-4-(7-hydroxyhepta-1,3-diyn-1-yl)phenyl)-3,6-dihydropyridin-1(2H)-yl)-N-hydroxy-2-methyl-2-(methylsulfonyl)butanamide] | 1 to 8 (≈ 2.1 to 16.8 µM) | 1 to 8 (≈ 2.1 to 16.8 µM) | < 1 |
| CC(CCN1CC=C(c2ccc(-c3ccc(C#N)cc3)cc2)CC1)(C(=O)NO)S(C)(=O)=O (stereo not drawn) [Example 66, 4-(4-(4′-cyano-[1,1′-biphenyl]-4-yl)-3,6-dihydropyridin-1(2H)-yl)-N-hydroxy-2-methyl-2-(methylsulfonyl)butanamide] | > 16 | 1 to 8 (≈ 2.2 to 17.6 µM) | < 1 |
| CC(CCN1CC=C(c2ccc(C#CCCO)cc2)CC1)(C(=O)NO)S(C)(=O)=O (stereo not drawn) [Example 5, N-hydroxy-4-(4-(4-(4-hydroxybut-1-yn-1-yl)phenyl)-3,6-dihydropyridin-1(2H)-yl)-2-methyl-2-(methylsulfonyl)butanamide] | 1 to 8 (≈ 2.38 to 19 µM) | 8 to 16 (≈ 19 to 38 µM) | 1 to 8 (≈ 2.38 to 19 µM) |
| CC(CCN1CC=C(c2ccc(-c3ccc(OS(C)(=O)=O)cc3)cc2)CC1)(C(=O)NO)S(C)(=O)=O (stereo not drawn) [Example 69, 4′-(1-(4-(hydroxyamino)-3-methyl-3-(methylsulfonyl)-4-oxobutyl)-1,2,3,6-tetrahydropyridin-4-yl)-[1,1′-biphenyl]-4-yl methanesulfonate] | 8 to 16 | < 1 | < 1 |
| Cc1csc(-c2ccc(C3=CCN(CCC(C)(C(=O)NO)S(C)(=O)=O)CC3)cc2)c1.Cl (stereo not drawn) [Example 72, N-hydroxy-2-methyl-2-(methylsulfonyl)-4-(4-(4-(4-methylthiophen-2-yl)phenyl)-3,6-dihydropyridin-1(2H)-yl)butanamide hydrochloride] | > 16 | < 1 | < 1 |
| COCC#CC#Cc1ccc(C2=CCN(CCC(C)(C(=O)NO)S(C)(=O)=O)CC2)cc1 (stereo not drawn) [Example 50, N-hydroxy-4-(4-(4-(5-methoxypenta-1,3-diyn-1-yl)phenyl)-3,6-dihydropyridin-1(2H)-yl)-2-methyl-2-(methylsulfonyl)butanamide] | < 1 | 1 to 8 (≈ 2.25 to 18 µM) | < 1 |
| CC(CCN1CC=C(c2ccc(-c3ccc(Cl)cc3)cc2)CC1)(C(=O)NO)S(C)(=O)=O (stereo not drawn) [Example 57, 4-(4-(4′-chloro-[1,1′-biphenyl]-4-yl)-3,6-dihydropyridin-1(2H)-yl)-N-hydroxy-2-methyl-2-(methylsulfonyl)butanamide] | > 16 | > 16 | 1 to 8 (≈ 2.16 to 17.3 µM) |
| CCCCC#Cc1ccc(C2=CCN(CCC(C)(C(=O)NO)S(C)(=O)=O)CC2)cc1 (stereo not drawn) [Example 6, 4-(4-(4-(hex-1-yn-1-yl)phenyl)-3,6-dihydropyridin-1(2H)-yl)-N-hydroxy-2-methyl-2-(methylsulfonyl)butanamide] | 8 to 16 (≈ 18.5 to 37 µM) | 1 to 8 (≈ 2.31 to 18.5 µM) | < 1 |
| CC(CCN1CC=C(c2ccc(C#CCCCOS(C)(=O)=O)cc2)CC1)(C(=O)NO)S(C)(=O)=O (stereo not drawn) [Example 19, 5-(4-(1-(4-(hydroxyamino)-3-methyl-3-(methylsulfonyl)-4-oxobutyl)-1,2,3,6-tetrahydropyridin-4-yl)phenyl)pent-4-yn-1-yl methanesulfonate] | 1 to 8 | 1 to 8 | < 1 |
| CC(CCN1CC=C(c2ccc(C#Cc3ccc(O)cc3)cc2)CC1)(C(=O)NO)S(C)(=O)=O (stereo not drawn) [Example 37, N-hydroxy-4-(4-(4-((4-hydroxyphenyl)ethynyl)phenyl)-3,6-dihydropyridin-1(2H)-yl)-2-methyl-2-(methylsulfonyl)butanamide] | > 16 | > 16 | < 1 |
| CC(CCN1CC=C(c2ccc(-c3ccoc3)cc2)CC1)(C(=O)NO)S(C)(=O)=O (stereo not drawn) [Example 63, 4-(4-(4-(furan-3-yl)phenyl)-3,6-dihydropyridin-1(2H)-yl)-N-hydroxy-2-methyl-2-(methylsulfonyl)butanamide] | 8 to 16 (≈ 19.1 to 38.2 µM) | < 1 | < 1 |
| CC(CCN1CC=C(c2ccc(C#CC#CCO)cc2)CC1)(C(=O)NO)S(C)(=O)=O (stereo not drawn) [Example 48, N-hydroxy-4-(4-(4-(5-hydroxypenta-1,3-diyn-1-yl)phenyl)-3,6-dihydropyridin-1(2H)-yl)-2-methyl-2-(methylsulfonyl)butanamide] | < 1 | 1 to 8 (≈ 2.32 to 18.6 µM) | < 1 |
| CC(CCN1CC=C(c2ccc(C#CC3CCCCC3)cc2)CC1)(C(=O)NO)S(C)(=O)=O (stereo not drawn) [Example 10, 4-(4-(4-(cyclohexylethynyl)phenyl)-3,6-dihydropyridin-1(2H)-yl)-N-hydroxy-2-methyl-2-(methylsulfonyl)butanamide] | 8 to 16 (≈ 17.4 to 34.9 µM) | 8 to 16 (≈ 17.4 to 34.9 µM) | 1 to 8 (≈ 2.18 to 17.4 µM) |
| COCC#Cc1ccc(C2=CCN(CCC(C)(C(=O)NO)S(C)(=O)=O)CC2)cn1 (stereo not drawn) [Example 75, N-hydroxy-4-(6-(3-methoxyprop-1-yn-1-yl)-3′,6′-dihydro-[3,4′-bipyridin]-1′(2′H)-yl)-2-methyl-2-(methylsulfonyl)butanamide] | > 16 | > 16 | > 16 |
| CN(C)CC#CC#Cc1ccc(C2=CCN(CCC(C)(C(=O)NO)S(C)(=O)=O)CC2)cc1F (stereo not drawn) [Example 45, 4-(4-(4-(5-(dimethylamino)penta-1,3-diyn-1-yl)-3-fluorophenyl)-3,6-dihydropyridin-1(2H)-yl)-N-hydroxy-2-methyl-2-(methylsulfonyl)butanamide] | 1 to 8 (≈ 2.1 to 16.8 µM) | 1 to 8 (≈ 2.1 to 16.8 µM) | < 1 |
| CC(CCN1CC=C(c2ccc(C#CC3CC3)cc2)CC1)(C(=O)NO)S(C)(=O)=O (stereo not drawn) [Example 4, 4-(4-(4-(cyclopropylethynyl)phenyl)-3,6-dihydropyridin-1(2H)-yl)-N-hydroxy-2-methyl-2-(methylsulfonyl)butanamide] | 1 to 8 (≈ 2.4 to 19.2 µM) | < 1 | < 1 |
| CC(CCN1CC=C(c2ccc(C#CCO)cc2)CC1)(C(=O)NO)S(C)(=O)=O (stereo not drawn) [Example 22, N-hydroxy-4-(4-(4-(3-hydroxyprop-1-yn-1-yl)phenyl)-3,6-dihydropyridin-1(2H)-yl)-2-methyl-2-(methylsulfonyl)butanamide] | 1 to 8 (≈ 2.46 to 19.7 µM) | > 16 | 1 to 8 (≈ 2.46 to 19.7 µM) |
| CCCC#Cc1ccc(C2=CCN(CCC(C)(C(=O)NO)S(C)(=O)=O)CC2)cc1 (stereo not drawn) [Example 11, N-hydroxy-2-methyl-2-(methylsulfonyl)-4-(4-(4-(pent-1-yn-1-yl)phenyl)-3,6-dihydropyridin-1(2H)-yl)butanamide] | 1 to 8 (≈ 2.39 to 19.1 µM) | 1 to 8 (≈ 2.39 to 19.1 µM) | < 1 |
| CCCCCc1ccc(-c2ccc(C3=CCN(CCC(C)(C(=O)NO)S(C)(=O)=O)CC3)cc2)cc1 (stereo not drawn) [Example 67, N-hydroxy-2-methyl-2-(methylsulfonyl)-4-(4-(4′-pentyl-[1,1′-biphenyl]-4-yl)-3,6-dihydropyridin-1(2H)-yl)butanamide] | > 16 | > 16 | 8 to 16 (≈ 16 to 32.1 µM) |
